Test results from the NIST ThermoML archive (doi:10.1021/je050273f).
± gives the expanded uncertainty stated by the source.

Test: molar heat capacity at saturation pressure
Conditions: Liquid, Large sample (1 g) DSC

Row | molar heat capacity (332.2 K) [J/K/mol] | molar heat capacity (342.1 K) [J/K/mol] | molar heat capacity (354.9 K) [J/K/mol] | molar heat capacity (361.8 K) [J/K/mol] | molar heat capacity (371.6 K) [J/K/mol] | molar heat capacity (381.5 K) [J/K/mol] | molar heat capacity (391.4 K) [J/K/mol] | molar heat capacity (401.3 K) [J/K/mol] | Structure (SMILES)
1 | 259 ± 5.2 | 263.1 ± 5.3 | 268.3 ± 5.4 | 272.7 ± 5.5 | 278.4 ± 5.6 | 283 ± 5.7 | 288.8 ± 5.8 | 293.5 ± 5.9 | CC(C)(C)c1ccccc1 [(1,1-dimethylethyl)benzene]
2 | 353.6 ± 7.1 | 359.6 ± 7.2 | 364.9 ± 7.3 | 371.5 ± 7.4 | 377.2 ± 7.5 | 384.3 ± 7.7 | 389.9 ± 7.8 | 396.5 ± 7.9 | CCCCCCCc1ccccc1 [heptylbenzene]
3 | 227.4 ± 4.5 | 231.4 ± 4.6 | 235.8 ± 4.7 | 240.1 ± 4.8 | 244.6 ± 4.9 | 249.3 ± 5 | 252 ± 5 |  | CCCc1ccccc1 [propylbenzene]
4 | 259.1 ± 5.2 | 263.5 ± 5.3 | 268.8 ± 5.4 | 273.9 ± 5.5 | 278.6 ± 5.6 | 283 ± 5.7 | 289.1 ± 5.8 | 293.8 ± 5.9 | CC(C)Cc1ccccc1 [(2-methylpropyl)benzene]
5 | 229.1 ± 4.6 | 234.2 ± 4.7 | 238.5 ± 4.8 | 242.5 ± 4.9 | 246.7 ± 4.9 | 251.1 ± 5 | 255.2 ± 5.1 | 259.5 ± 5.2 | CC(C)c1ccccc1 [isopropylbenzene]
6 | 323.1 ± 6.5 | 328.8 ± 6.6 | 334.1 ± 6.7 | 340.1 ± 6.8 | 347.9 ± 7 | 353.8 ± 7.1 | 359.1 ± 7.2 | 366.1 ± 7.3 | CCCCCCc1ccccc1 [hexylbenzene]
7 | 198.7 ± 4 | 202.4 ± 4 | 205.9 ± 4.1 | 210.2 ± 4.2 | 213.6 ± 4.3 | 218 ± 4.4 | 221.7 ± 4.4 |  | CCc1ccccc1 [ethylbenzene]
8 | 258.5 ± 5.2 | 262.6 ± 5.3 | 267.9 ± 5.4 | 272.5 ± 5.5 | 277.5 ± 5.6 | 282.4 ± 5.6 | 287.3 ± 5.7 | 292.1 ± 5.8 | CCC(C)c1ccccc1 (stereo unspecified) [(1-methylpropyl)benzene]
9 | 640 ± 13 | 651.3 ± 13 | 662 ± 13 | 671.9 ± 13 | 683.3 ± 14 | 695.3 ± 14 | 710 ± 14 | 721.1 ± 14 | CCCCCCCCCCCCCCCCc1ccccc1 [hexadecylbenzene]

Row | Structure (SMILES) | molar heat capacity (332.2 K) [J/K/mol] | molar heat capacity (342.1 K) [J/K/mol] | molar heat capacity (354.9 K) [J/K/mol] | molar heat capacity (361.8 K) [J/K/mol] | molar heat capacity (371.6 K) [J/K/mol] | molar heat capacity (381.5 K) [J/K/mol] | molar heat capacity (391.4 K) [J/K/mol] | molar heat capacity (401.3 K) [J/K/mol]
10 | Cc1cccc(C)c1 [1,3-dimethylbenzene] | 193.6 ± 3.9 | 197.6 ± 4 | 201.7 ± 4 | 205.7 ± 4.1 | 209.4 ± 4.2 | 213.6 ± 4.3 | 217.4 ± 4.3 | 221.7 ± 4.4
11 | CCCCc1ccccc1 [butylbenzene] | 259.1 ± 5.2 | 263 ± 5.3 | 267.8 ± 5.4 | 272.9 ± 5.5 | 277.6 ± 5.6 | 283.9 ± 5.7 | 288 ± 5.8 | 293.9 ± 5.9
